Assay results: patent US20050112573A1, “Method of detecting toxic substance” (priority 2001, published 2005)

Test system: yeast genes (level of expressed mRNA)
Test: DNA chip analysis of expressed mRNA of yeast genes after 2 h culture with a toxic chemical substance
Format: cell-based, Saccharomyces cerevisiae S288C
In short: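 Values are treated-to-control fluorescence ratios from a whole-yeast-genome DNA chip (65° C, over 12 h hybridization) using Cy3/Cy5-labelled cDNA from mRNA. Log-phase S288C cells in YPD at 25° C were exposed 2 h to a toxicant at sublethal, growth-inhibiting concentration.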

sodium dodecylbenzosulfonate [(17)]
level of expressed mRNA in the presence of chemical substance/in its absence (gene YGL104C): 1.3
level of expressed mRNA in the presence of chemical substance/in its absence (gene YGL126W): 0.9
level of expressed mRNA in the presence of chemical substance/in its absence (gene YGL134W): 0.9
level of expressed mRNA in the presence of chemical substance/in its absence (gene YGL154C): 1.0
The level of expressed mRNA in the presence of chemical substance/absence: YGL183C (gene YGL183C): 1.4
level of expressed mRNA in the presence of chemical substance/in its absence (gene YGL209W): 1.1
The level of expressed mRNA in the presence of chemical substance/absence: YGL223C (gene YGL223C): 0.8
level of expressed mRNA in the presence of chemical substance/in its absence (gene YGL253W): 0.7
The level of expressed mRNA in the presence of chemical substance/absence: YGR038W (gene YGR038W): 1.1
level of expressed mRNA in the presence of chemical substance/in its absence (gene YGR060W): 1.3
The level of expressed mRNA in the presence of chemical substance/absence: YGR139W (gene YGR139W): 1.0
The level of expressed mRNA in the presence of chemical substance/absence: YGR156W (gene YGR156W): 0.8
The level of expressed mRNA in the presence of chemical substance/absence: YGR198W (gene YGR198W): 1.1
The level of expressed mRNA in the presence of chemical substance/absence: YGR210C (gene YGR210C): 1.1
The level of expressed mRNA in the presence of chemical substance/absence: YGR211W (gene YGR211W): 0.5
The level of expressed mRNA in the presence of chemical substance/absence: YGR237C (gene YGR237C): 0.9
The level of expressed mRNA in the presence of chemical substance/absence: YGR243W (gene YGR243W): 2.1
The level of expressed mRNA in the presence of chemical substance/absence: YGR250C (gene YGR250C): 1.3
The level of expressed mRNA in the presence of chemical substance/absence: YGR266W (gene YGR266W): 0.7
The level of expressed mRNA in the presence of chemical substance/absence: YGR277C (gene YGR277C): 1.3
level of expressed mRNA in the presence of chemical substance/in its absence (gene YGR282C): 1.1
The level of expressed mRNA in the presence of chemical substance/absence: YGR293C (gene YGR293C): 0.8
The level of expressed mRNA in the presence of chemical substance/absence: YHL006C (gene YHL006C): 1.1
The level of expressed mRNA in the presence of chemical substance/absence: YHL021C (gene YHL021C): 1.3
The level of expressed mRNA in the presence of chemical substance/absence: YHL037C (gene YHL037C): 0.9
level of expressed mRNA in the presence of chemical substance/in its absence (gene YHR037W): 1.0
The level of expressed mRNA in the presence of chemical substance/absence: YHR083W (gene YHR083W): 0.8
level of expressed mRNA in the presence of chemical substance/in its absence (gene YHR092C): 0.9
The level of expressed mRNA in the presence of chemical substance/absence: YHR095W (gene YHR095W): 0.8
The level of expressed mRNA in the presence of chemical substance/absence: YHR105W (gene YHR105W): 1.0
The level of expressed mRNA in the presence of chemical substance/absence: YHR134W (gene YHR134W): 1.3
level of expressed mRNA in the presence of chemical substance/in its absence (gene YHR137W): 0.8
The level of expressed mRNA in the presence of chemical substance/absence: YHR180W (gene YHR180W): 0.8
The level of expressed mRNA in the presence of chemical substance/absence: YHR181W (gene YHR181W): 0.9
level of expressed mRNA in the presence of chemical substance/in its absence (gene YHR190W): 1.3
level of expressed mRNA in the presence of chemical substance/in its absence (gene YIL033C): 1.0
The level of expressed mRNA in the presence of chemical substance/absence: YIL108W (gene YIL108W): 1.2
The level of expressed mRNA in the presence of chemical substance/absence: YIL127C (gene YIL127C): 0.7
level of expressed mRNA in the presence of chemical substance/in its absence (gene YIL154C): 1.2
The level of expressed mRNA in the presence of chemical substance/absence: YIL165C (gene YIL165C): 1.4
level of expressed mRNA in the presence of chemical substance/in its absence (gene YIL167W): 0.7
level of expressed mRNA in the presence of chemical substance/in its absence (gene YIR035C): 1.1
The level of expressed mRNA in the presence of chemical substance/absence: YJL017W (gene YJL017W): 1.0
The level of expressed mRNA in the presence of chemical substance/absence: YJL032W (gene YJL032W): 1.1
The level of expressed mRNA in the presence of chemical substance/absence: YJL037W (gene YJL037W): 1.3
The level of expressed mRNA in the presence of chemical substance/absence: YJL049W (gene YJL049W): 0.9
level of expressed mRNA in the presence of chemical substance/in its absence (gene YJL088W): 1.4
The level of expressed mRNA in the presence of chemical substance/absence: YJL097W (gene YJL097W): 1.2
level of expressed mRNA in the presence of chemical substance/in its absence (gene YJL132W): 1.3
level of expressed mRNA in the presence of chemical substance/in its absence (gene YJL196C): 0.9
The level of expressed mRNA in the presence of chemical substance/absence: YJR030C (gene YJR030C): 0.7
The level of expressed mRNA in the presence of chemical substance/absence: YJR044C (gene YJR044C): 1.8
level of expressed mRNA in the presence of chemical substance/in its absence (gene YJR142W): 1.2
level of expressed mRNA in the presence of chemical substance/in its absence (gene YJR148W): 1.3
level of expressed mRNA in the presence of chemical substance/in its absence (gene YJR159W): 1.7
The level of expressed mRNA in the presence of chemical substance/absence: YKL051W (gene YKL051W): 1.5
The level of expressed mRNA in the presence of chemical substance/absence: YKL059C (gene YKL059C): 1.1
level of expressed mRNA in the presence of chemical substance/in its absence (gene YKL067W): 1.4
The level of expressed mRNA in the presence of chemical substance/absence: YKL090W (gene YKL090W): 0.7
The level of expressed mRNA in the presence of chemical substance/absence: YKL094W (gene YKL094W): 1.2
The level of expressed mRNA in the presence of chemical substance/absence: YKL097C (gene YKL097C): 1.1
The level of expressed mRNA in the presence of chemical substance/absence: YKL100C (gene YKL100C): 0.7
level of expressed mRNA in the presence of chemical substance/in its absence (gene YKR039W): 0.9
The level of expressed mRNA in the presence of chemical substance/absence: YKR040C (gene YKR040C): 0.7
The level of expressed mRNA in the presence of chemical substance/absence: YLR097C (gene YLR097C): 1.1
level of expressed mRNA in the presence of chemical substance/in its absence (gene YLR142W): 1.9
level of expressed mRNA in the presence of chemical substance/in its absence (gene YLR180W): 0.8
The level of expressed mRNA in the presence of chemical substance/absence: YLR226W (gene YLR226W): 1.1
level of expressed mRNA in the presence of chemical substance/in its absence (gene YLR273C): 1.0
level of expressed mRNA in the presence of chemical substance/in its absence (gene YLR300W): 0.7
level of expressed mRNA in the presence of chemical substance/in its absence (gene YLR307W): 1.1
The level of expressed mRNA in the presence of chemical substance/absence: YLR338W (gene YLR338W): 0.8
The level of expressed mRNA in the presence of chemical substance/absence: YLR339C (gene YLR339C): 0.7
The level of expressed mRNA in the presence of chemical substance/absence: YLR392C (gene YLR392C): 0.8
The level of expressed mRNA in the presence of chemical substance/absence: YLR415C (gene YLR415C): 0.8
The level of expressed mRNA in the presence of chemical substance/absence: YLR427W (gene YLR427W): 1.0
The level of expressed mRNA in the presence of chemical substance/absence: YML013W (gene YML013W): 1.1
The level of expressed mRNA in the presence of chemical substance/absence: YML029W (gene YML029W): 1.2
The level of expressed mRNA in the presence of chemical substance/absence: YML041C (gene YML041C): 1.3
The level of expressed mRNA in the presence of chemical substance/absence: YML079W (gene YML079W): 1.4
level of expressed mRNA in the presence of chemical substance/in its absence (gene YML110C): 1.1
The level of expressed mRNA in the presence of chemical substance/absence: YML118W (gene YML118W): 1.5
The level of expressed mRNA in the presence of chemical substance/absence: YMR068W (gene YMR068W): 1.3
The level of expressed mRNA in the presence of chemical substance/absence: YMR071C (gene YMR071C): 1.2
level of expressed mRNA in the presence of chemical substance/in its absence (gene YMR105C): 1.6
The level of expressed mRNA in the presence of chemical substance/absence: YMR114C (gene YMR114C): 1.0
The level of expressed mRNA in the presence of chemical substance/absence: YMR115W (gene YMR115W): 1.0
The level of expressed mRNA in the presence of chemical substance/absence: YMR160W (gene YMR160W): 0.9
level of expressed mRNA in the presence of chemical substance/in its absence (gene YMR189W): 1.0
The level of expressed mRNA in the presence of chemical substance/absence: YMR258C (gene YMR258C): 1.1
level of expressed mRNA in the presence of chemical substance/in its absence (gene YMR271C): 1.3
level of expressed mRNA in the presence of chemical substance/in its absence (gene YMR272C): 1.3
level of expressed mRNA in the presence of chemical substance/in its absence (gene YMR296C): 0.8
level of expressed mRNA in the presence of chemical substance/in its absence (gene YNL012W): 1.3
The level of expressed mRNA in the presence of chemical substance/absence: YNL026W (gene YNL026W): 1.0
